Columns and labels:
human myoblasts = assay: In vitro selection of MGMT^P140K-2A-GFP gene-targeted myoblasts with BG/BCNU; assay type: cell-based
Excerpt: Consequently, we next verified whether expression from the integrated MGMT^P140K gene, along with the eGFP reporter gene to facilitate tracking of transduced cells, was sufficient to confer myoblasts protection against treatments with BG and BCNU (FIG. 4A). Using IDLV to deliver a MGMT^P140K-eGFP template DNA flanked by CCR5 homology arms, we obtained 40-50% gene addition in myoblasts in the absence of drug selection (FIG. 4B and C). However, to fully evaluate the selection potential of the BG/BCNU combination, we thought it would be more appropriate to work with a population containing a much lower level of gene addition. As such, we generated two populations of gene-targeted myoblasts containing either 3% or 35% of cells expressing the MGMT^P140K-2A-GFP gene using non-transduced cells for dilution. Both populations were exposed to 20 μM BG for one hour followed by increasing doses of BCNU (10, 25, 50 and 100 μM) for two hours (FIG. 4D).
Myoblasts were then allowed to recover for one week after which the proportion of eGFP positive cells was analyzed by flow cytometry, a procedure defined as one cycle of drug selection. […] After three cycles of selection using the same concentration of BCNU, up to 45% of the myoblasts were positive for eGFP, representing a 15-fold enrichment over the initial population. […] In comparison, when starting with a population containing already 35% of gene-targeted myoblasts, over 85% of the cells were expressing eGFP after only one cycle of selection using 50 μM of BCNU (FIG. 4D).
Four weeks post-transduction, gene modified myoblasts containing the MGMT^P140K-2A-GFP cassette inserted at the endogenous CCR5 locus were treated with 50 μM O6BG for two hours followed by increasing doses (range from 10-100 μM) of BCNU for one hour. Cells were then washed with PBS and allowed to proliferate in the presence of […] for seven days before being analyzed by FACS. Where indicated, this procedure was repeated up to two more times. Cells were maintained in the presence of O6BG during their post-treatment expansion to inactivate the endogenous MGMT gene.

[1] = system: CCR5-specific ZFN pair (exon 3) (artificial); assay: cell_activity; details: Cel-1 assay in human myoblasts; cleavage over 30%
[2] = starting population 3%, three cycles, 100 μM BCNU

Compound | effect of additional cycle of selection (human myoblasts; starting population 3%, beyond three cycles) | proportion of MGMT^P140K-2A-GFP expressing cells (human myoblasts; starting population 3%, one cycle, 20 μM BG then 100 μM BCNU) [%] | enrichment over the initial population (human myoblasts; [2]) [fold] | proportion of myoblasts positive for eGFP (human myoblasts; [2]) | proportion of cells expressing eGFP (human myoblasts; starting population 35%, one cycle, 50 μM BCNU) | activity [1] [%]
O=NN(CCCl)C(=O)NCCCl [BCNU, 1,3-bis(2-chloroethyl)-N-nitrosourea] | did not allow us to further increase the proportion of eGFP positive cells | 11 | 15 | up to 45% | over 85% | –
CCR5 locus exon 3 ZFN target | – | – | – | – | – | > 30
